pIC50: −log10 of the molar value. Read-outs that look alike come from different tables or passages of the source.
Columns and labels:
gliosarcoma (SF-539) = assay: NCI 60 five dose screen
SK-MEL-5 = assay: Melanoma cytotoxicity assay (resazurin); assay type: cell-based; conditions: SK-MEL-5 melanoma cells, 24 hours with compound, resazurin; concentration not given
Summary of the method: (§1)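 ~4000 cells/well seeded 24 h, then compound added in triplicate for 24 h at 37° C, 5% CO2. Resazurin added for 6 h; fluorescence at 544/590 nm, background-subtracted and normalised to DMSO wells as % viability; IC50 from sigmoidal fit of serial dilutions.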

[1] = test system: 60 different human tumor cell lines; assay: cells
LOX IMVI = assay: Melanoma cytotoxicity assay (resazurin); assay type: cell-based; conditions: LOX IMVI melanoma cells, resazurin
Summary of the method: as §1

Compound: C[C@]12CCc3sc(NCCc4ccccc4)nc3C1=CC[C@@H]1[C@@H]2CC[C@]2(C)C(=O)CC[C@@H]12 [IIa.2, (1S,2R,13R,14S,18S)-2,18-dimethyl-7-(2-phenylethylamino)-6-thia-8-azapentacyclo [11.7.0.02,10.05,9.014,18]icosa-5(9),7,10-trien-17-one]
- GI50 (gliosarcoma (SF-539); Homo sapiens, SF-539): 1.69 µM
- CC50 (gliosarcoma (SF-539); Homo sapiens, SF-539, read-out: LC50): 7.75 µM
- TGI (gliosarcoma (SF-539); SF-539 (CNS Cancer), five dose): 3.62E−6
- SK-MEL-5 (% inhibition) (SK-MEL-5): 73%
- GI50 ([1]; 60 cell): 3.35 µM
- CC50 ([1]; 60 cell, read-out: LC50): > 100 µM
- GI50 ([1]; 786-0): 2.82 µM
- CC50 ([1]; 786-0, read-out: LC50): > 100 µM
- GI50 ([1]; A498): 4.43 µM
- CC50 ([1]; A498, read-out: LC50): > 100 µM
- GI50 ([1]; A549): 7 µM
- CC50 ([1]; A549, read-out: LC50): > 100 µM
- GI50 ([1]; ACHN): 1.96 µM
- CC50 ([1]; ACHN, read-out: LC50): 7.19 µM
- GI50 ([1]; BT-549): 2.42 µM
- CC50 ([1]; BT-549, read-out: LC50): > 100 µM
- GI50 ([1]; CAKI-1): 3.13 µM
- CC50 ([1]; CAKI-1, read-out: LC50): > 100 µM
- GI50 ([1]; CCRF-CEM): 2.63 µM
- CC50 ([1]; CCRF-CEM, read-out: LC50): > 100 µM
- GI50 ([1]; COLO 205): 3.03 µM
- CC50 ([1]; COLO 205, read-out: LC50): > 100 µM
- GI50 ([1]; DU-145): 3.64 µM
- CC50 ([1]; DU-145, read-out: LC50): > 100 µM
- GI50 ([1]; EKVX): 90.1 µM
- CC50 ([1]; EKVX, read-out: LC50): > 100 µM
- GI50 ([1]; HCC 2998): 8.19 µM
- CC50 ([1]; HCC 2998, read-out: LC50): > 100 µM
- GI50 ([1]; HCT-15): 1.57 µM
- CC50 ([1]; HCT-15, read-out: LC50): 88.7 µM
- GI50 ([1]; HCT-116): 2.87 µM
- CC50 ([1]; HCT-116, read-out: LC50): > 100 µM
- GI50 ([1]; HL-60): 2.93 µM
- CC50 ([1]; HL-60, read-out: LC50): > 100 µM
- GI50 ([1]; HOP-62): 8.52 µM
- CC50 ([1]; HOP-62, read-out: LC50): > 100 µM
- GI50 ([1]; HOP-92): 2.75 µM
- CC50 ([1]; HOP-92, read-out: LC50): > 100 µM
- GI50 ([1]; HT-29): 2.21 µM
- CC50 ([1]; HT-29, read-out: LC50): > 100 µM
- GI50 ([1]; Hs-578T): 2.85 µM
- CC50 ([1]; Hs-578T, read-out: LC50): > 100 µM
- GI50 ([1]; IGROV-1): 2.6 µM
- CC50 ([1]; IGROV-1, read-out: LC50): 65.6 µM
- GI50 ([1]; K562): 2.89 µM
- CC50 ([1]; K562, read-out: LC50): > 100 µM
- GI50 ([1]; KM12): 3.6 µM
- CC50 ([1]; KM12, read-out: LC50): > 100 µM
- GI50 ([1]; LOX IMVI): 1.7 µM
- CC50 ([1]; LOX IMVI, read-out: LC50): 5.91 µM
- GI50 ([1]; M14): 3.63 µM
- CC50 ([1]; M14, read-out: LC50): > 100 µM
- GI50 ([1]; MCF7): 2.68 µM
- CC50 ([1]; MCF7, read-out: LC50): > 100 µM
- GI50 ([1]; MDA-MB-231): 3.4 µM
- CC50 ([1]; MDA-MB-231, read-out: LC50): > 100 µM
- GI50 ([1]; MDA-MB-435): 3.01 µM
- CC50 ([1]; MDA-MB-435, read-out: LC50): > 100 µM
- GI50 ([1]; MDA-MB-468): 2.99 µM
- CC50 ([1]; MDA-MB-468, read-out: LC50): > 100 µM
- GI50 ([1]; MOLT-4): 2.58 µM
- CC50 ([1]; MOLT-4, read-out: LC50): > 100 µM
- GI50 ([1]; Malme-3M): 2.18 µM
- CC50 ([1]; Malme-3M, read-out: LC50): > 100 µM
- GI50 ([1]; NCI-H23): 5.03 µM
- GI50 ([1]; NCI-H226): 2.42 µM
- CC50 ([1]; NCI-H226, read-out: LC50): > 100 µM
- GI50 ([1]; NCI-H322M): 96.9 µM
- CC50 ([1]; NCI-H322M, read-out: LC50): > 100 µM
- GI50 ([1]; NCI-H460): 4.47 µM
- CC50 ([1]; NCI-H460, read-out: LC50): > 100 µM
- GI50 ([1]; NCI-H522): 1.78 µM
- CC50 ([1]; NCI-H522, read-out: LC50): 7.45 µM
- GI50 ([1]; NCI/ADR-RES): 2.31 µM
- CC50 ([1]; NCI/ADR-RES, read-out: LC50): > 100 µM
- GI50 ([1]; OVCAR-3): 2.08 µM
- CC50 ([1]; OVCAR-3, read-out: LC50): > 100 µM
- GI50 ([1]; OVCAR-4): 3.93 µM
- CC50 ([1]; OVCAR-4, read-out: LC50): > 100 µM
- GI50 ([1]; OVCAR-5): 4.44 µM
- CC50 ([1]; OVCAR-5, read-out: LC50): > 100 µM
- GI50 ([1]; OVCAR-8): 2.77 µM
- CC50 ([1]; OVCAR-8, read-out: LC50): > 100 µM
- GI50 ([1]; RXF 393): 1.73 µM
- CC50 ([1]; RXF 393, read-out: LC50): 30.9 µM
- GI50 ([1]; SF-268): 4.62 µM
- CC50 ([1]; SF-268, read-out: LC50): > 100 µM
- GI50 ([1]; SK-MEL-2): 17 µM
- CC50 ([1]; SK-MEL-2, read-out: LC50): > 100 µM
- GI50 ([1]; SK-MEL-5): 4.57 µM
- CC50 ([1]; SK-MEL-5, read-out: LC50): > 100 µM
- GI50 ([1]; SK-MEL-28): 3.37 µM
- CC50 ([1]; SK-MEL-28, read-out: LC50): > 100 µM
- GI50 ([1]; SK-OV-3): > 100 µM
- CC50 ([1]; SK-OV-3, read-out: LC50): > 100 µM
- GI50 ([1]; SN12C): 2.89 µM
- CC50 ([1]; SN12C, read-out: LC50): > 100 µM
- GI50 ([1]; SNB-19): 97.5 µM
- CC50 ([1]; SNB-19, read-out: LC50): > 100 µM
- GI50 ([1]; SNB-75): 2.67 µM
- CC50 ([1]; SNB-75, read-out: LC50): > 100 µM
- GI50 ([1]; SW-620): 2.3 µM
- CC50 ([1]; SW-620, read-out: LC50): > 100 µM
- GI50 ([1]; T47D): 3.05 µM
- CC50 ([1]; T47D, read-out: LC50): > 100 µM
- GI50 ([1]; TK-10): 4.15 µM
- CC50 ([1]; TK-10, read-out: LC50): > 100 µM
- GI50 ([1]; U-251): 4.97 µM
- CC50 ([1]; U-251, read-out: LC50): > 100 µM
- GI50 ([1]; UACC-62): 2.67 µM
- CC50 ([1]; UACC-62, read-out: LC50): > 100 µM
- GI50 ([1]; UACC-257): 4.92 µM
- CC50 ([1]; UACC-257, read-out: LC50): > 100 µM
- GI50 ([1]; UO-31): 4.03 µM
- CC50 ([1]; UO-31, read-out: LC50): > 100 µM

Compound: (1S,2R,13R,14S,18S)-7-(3-fluoroanilino)-2,18-dimethyl-6-thia-8-azapentacyclo[11.7.0.02,10.05,9.014,18]icosa-5(9),7,10-trien-17-one [IIa.8]
- GI50 (gliosarcoma (SF-539); SF-539 (CNS Cancer), five dose): 1.34 µM
- TGI (gliosarcoma (SF-539); SF-539 (CNS Cancer), five dose): 2.94E−6
- GI50 (gliosarcoma (SF-539); gliosarcoma SF-539): 1.34 µM
- CC50 (gliosarcoma (SF-539); read-out: LC50, SF-539 (CNS Cancer), five dose): 6.45 µM
- SK-MEL-5 (% inhibition) (SK-MEL-5): 84%
- LOX-IMVI (% inhibition) (LOX IMVI; 24 hours with compound, concentration not given): 79%
- pIC50 (LOX IMVI; 24 hours): < 4.70

Reference: US20250296953A1, “3,4-THIAZOLO-STEROIDS AND METHODS OF MAKING AND USING THE SAME” (Arkansas State University - Jonesboro, priority 2018, published 2025)
